Measurements taken from US20030070184A1, “LIGANDS FOR DISCOIDIN DOMAIN RECEPTOR TYROSINE KINASES AND COMPLEXES THEREOF” (priority 1999, published 2003).
“And” between values parts separate entries of the source, which are not always exact repeats. Equal entries are not always repeated. “Also recorded” adds a separate entry of the source. One block for each compound: values may come before it. Where a SMILES comes first, the peptide text is derived from it. [ ]: non-standard residue; d: D form. pY = N[C@@H](Cc1ccc(OP(=O)(O)O)cc1)C(=O)O

Tests used:
DDR receptors = experiment: Effect of other agents on DDR activity / collagen-induced DDR tyrosine phosphorylation; format: cell-based; settings: for effect on DDR activity: collagen-associated molecules
DDR2 = biological target: T1, DDR2 (Homo sapiens, UniProt Q16832); experiment: DDR2 tyrosine phosphorylation in transfected 293 cells (anti-phosphotyrosine Western blot); format: cell-based; settings: 90 min; for ligand activity: induction of DDR2 tyrosine phosphorylation: soluble agent added to medium of transfected 293 cells, 10 μg/ml
T1 construct: expressed in transfected cells; host or cells: 293 cells, CMV-based expression vector
T1 sequence (Q16832 22-855): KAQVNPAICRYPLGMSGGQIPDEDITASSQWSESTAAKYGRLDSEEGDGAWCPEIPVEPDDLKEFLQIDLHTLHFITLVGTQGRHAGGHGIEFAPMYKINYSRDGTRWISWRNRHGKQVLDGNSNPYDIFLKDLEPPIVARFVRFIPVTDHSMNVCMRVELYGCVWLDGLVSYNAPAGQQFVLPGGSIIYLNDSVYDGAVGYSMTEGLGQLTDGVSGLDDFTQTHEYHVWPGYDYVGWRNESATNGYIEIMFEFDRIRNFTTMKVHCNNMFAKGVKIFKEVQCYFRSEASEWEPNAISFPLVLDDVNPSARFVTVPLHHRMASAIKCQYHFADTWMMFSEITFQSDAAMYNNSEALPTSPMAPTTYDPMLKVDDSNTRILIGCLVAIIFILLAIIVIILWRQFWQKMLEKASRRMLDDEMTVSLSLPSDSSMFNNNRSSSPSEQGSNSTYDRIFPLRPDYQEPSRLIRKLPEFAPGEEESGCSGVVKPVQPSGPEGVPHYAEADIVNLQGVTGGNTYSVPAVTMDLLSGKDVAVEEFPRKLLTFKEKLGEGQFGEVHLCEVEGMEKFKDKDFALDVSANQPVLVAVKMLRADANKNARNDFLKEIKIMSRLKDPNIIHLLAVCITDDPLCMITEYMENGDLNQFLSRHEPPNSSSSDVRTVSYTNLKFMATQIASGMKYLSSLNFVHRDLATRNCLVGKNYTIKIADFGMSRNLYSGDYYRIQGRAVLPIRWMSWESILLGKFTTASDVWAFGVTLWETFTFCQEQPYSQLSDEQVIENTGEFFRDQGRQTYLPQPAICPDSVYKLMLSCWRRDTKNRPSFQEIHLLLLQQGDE
Protocol: (§1) Semiconfluent 293 cells were transfected by calcium-phosphate precipitation with a cytomegalovirus-based expression vector. Sixteen hours later, cells were transferred to serum-free media for another 24 h. Cells were stimulated with 10 μg/ml collagen for 90 min and lysed with 1% Triton-X 100, 50 mM HEPES (pH 7.5), 150 mM NaCl, 1.5 mM MgCl2, 5 mM EGTA, 5 mM EDTA, 10% glycerol, 10 mM NaF, 1 mM phenylmethylsulfonyl fluoride (PMSF), 1 mM Na-orthovanadate, 10 μg/ml aprotinin. The cellular lysates were centrifuged 10 min at 4° C. and 13,000 rpm and aliquots of the supernatant were subjected to SDS-PAGE or further analyzed by immunoprecipitation with specific antibodies for 3 h at 4° C. on a rotating wheel. The immunocomplex was washed three times with 20 mM HEPES (pH 7.5), 150 mM NaCl, 0.1% Triton, 10% glycerol and analyzed by SDS-PAGE. Proteins were transferred to nitrocellulose membrane (Schleicher & Schuell) and immunoblotted with antibodies diluted 1:500 in 50 mM Tris (pH 7.5), 150 mM NaCl, 5 mM EDTA, 0.05% gelatin overnight. Western blots were developed using horseradish peroxidase-coupled secondary antibody (Biorad) and enhanced chemiluminescence (Amersham). For reprobing, the membrane was stripped in 70 mM Tris (pH 6.8), 2% SDS, 0.1% P-mercaptoethanol at 55° C. for 30 min. For in vitro kinase assays, immunoprecipitates were washed twice with in 40 mM HEPES (pH 7.5), 20 mM MgCl2, 2 mM MnCl2, 100 μM orthovanadate, 5 μM dATP and incubated with 5 μCi [γ-^32P] ATP at 30° C. for 20 min. The products of the kinase reaction were monitored by SDS-PAGE and autoradiography.

DDR1b = biological target: T2, DDR1b (Homo sapiens, UniProt Q08345); experiment: Tyrosine phosphorylation of endogenous DDR1b in carcinoma cells (T-47D; A431), immunoprecipitation and anti-phosphotyrosine blot; format: cell-based; settings: T-47D, 90 min; collagens/gelatin 10 μg/ml, orthovanadate 1 mM
T2 construct: endogenous in cells; host or cells: T-47D human mammary carcinoma cells (A431 also named)
Description: To investigate the effects of collagen on cells that express endogenous DDR tyrosine kinases, the mammary carcinoma cell line T-47D was employed. Previous results have shown that DDR1 is highly expressed in human carcinoma cell lines, in particular, the breast cancer cell lines BT-20, MDA-MB-175 and T-47D (1) (Perez et al., 1996). […] The time course of endogenous DDR1b tyrosine phosphorylation in T-47D cells was even slower than in 293 cells, with maximal activation being achieved only after stimulation for 18 hours.
To further investigate the role of different types of collagen in the activation of DDR1 and DDR2, collagen types I, II, III and V purified from human placenta and collagen type II from bovine tracheal cartilage were obtained. To test their ability to induce receptor tyrosine phosphorylation, 293 cells overexpressing DDR1 or DDR2 were employed. […] The various types of collagen were also tested for their ability to stimulate tyrosine phosphorylation of endogenous DDR1b present in T-47D cells. For this purpose, DDR1b was immunoprecipitated from lysates of stimulated T-47D cells and analyzed by Western blotting with anti-phosphotyrosine antibodies. […] As previously shown, DDR1 tyrosine phosphorylation could also be activated by treating cells with 1 mM orthovanadate, an inhibitor of tyrosine phosphatases. Furthermore, gelatin which contains heat denatured collagen was tested for its capacity to induce DDR1b tyrosine phosphorylation.
Integrins of the type α1β1 and α2β1 have long been known to be receptors for collagen. Therefore, tests were conducted to determine if these integrins are somehow involved in the activation of DDR1b. The mammary carcinoma cell line T-47D, which endogenously expresses the b-isoform of DDR1, was used. Monoclonal antibodies directed against the extracellular domains of integrins can block binding to collagen and therefore signaling of integrins. T-47D cells were treated with antibody A2-IIE10 against α2-integrin and antibody DE9 against β1-integrin (both from Upstate Biotechnology) in the absence or presence of 10 μg/ml collagen type I overnight. DDR1b or Shc were immunoprecipitated from cellular lysates and analyzed by Western blotting with antiphosphotyrosine antibody.
DDR1b and DDR2 were transfected into 293 cells and were stimulated with 10 µg/ml mouse collagen type I for different periods of time. (FIG. 9A and FIG. 9B) Total cellular lysates were probed with antiphosphotyrosine antibody. Maximal activation is seen 90 min after stimulation of DDR1b (FIG. 9A) and DDR2 (FIG. 9B). (FIG. 9C) Human mammary carcinoma T-47D cells were cultivated on 10 cm dishes to confluence and starved in 0.5% serum overnight. Cells were stimulated with collagen type I for various periods of time and lysed. DDR1b was immunoprecipitated from the lysates and analyzed by Western blotting with antiphosphotyrosine antibody. Maximal phosphorylation of DDR1b is seen after stimulation for 18 h. An unidentified, tyrosine phosphorylated protein with an apparent molecular weight of 115 kDa is copurified in the immunoprecipitations. […] Prolonged stimulation with collagen increases the processing of DDR1b in T-47D cells, indicated by an additional 62 kDa band. (FIGS. 9E and 9F) DDR1b was immunoprecipitated from overexpressing 293 cells (E) and T-47D (FIG. 9F) cells and subjected to an in vitro kinase reaction. The incorporation of [^32P]-phosphate is monitored by SDS-PAGE followed by autoradiograpy.

DDR1 = biological target: T3, DDR1 (Homo sapiens, UniProt Q08345); experiment: DDR1 tyrosine phosphorylation in transfected 293 cells (anti-phosphotyrosine Western blot); format: cell-based; settings: 90 min; for ligand activity: induction of DDR1 (DDR1b) tyrosine phosphorylation: soluble agent added to medium of transfected 293 cells, 10 μg/ml
T3 construct: expressed in transfected cells; host or cells: human embryonic kidney 293 cells, CMV-based expression vector
Protocol: as §1
To identify possible sources for the ligand of DDR1, an in vivo screening system was established. Human embryonic kidney fibroblast 293 cells were transiently transfected with expression plasmids coding for DDR1b. Growth-arrested cells were then stimulated with various agents and monitored for receptor activation by anti-phosphotyrosine Western blotting of total cellular lysates. […] The increase of DDR1b autophosphorylation was dependent on the concentration of matrigel added to the cells (FIG. 7A).

Shc PTB domain = biological target: T4, Shc PTB domain (Homo sapiens, UniProt P29353); experiment: Surface plasmon resonance competition: GST-Shc PTB domain binding to immobilized middle T antigen phosphopeptide; settings: IC50, inhibition of binding of the Shc PTB domain to the middle T antigen phosphopeptide, BIAcore, soluble competing phosphopeptide
T4 construct: the PTB domain fusion construct comprises amino acids 1-225 of human p52 Shc; made in house; host or cells: E. coli
T4 sequence (P29353 1-225 isoform P29353-2): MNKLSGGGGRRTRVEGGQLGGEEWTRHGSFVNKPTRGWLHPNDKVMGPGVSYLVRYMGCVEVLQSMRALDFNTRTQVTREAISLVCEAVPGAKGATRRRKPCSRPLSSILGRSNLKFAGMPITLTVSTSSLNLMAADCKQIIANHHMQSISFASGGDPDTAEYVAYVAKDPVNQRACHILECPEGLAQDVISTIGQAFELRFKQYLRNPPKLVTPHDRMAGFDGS
Protocol: Surface plasmon resonance—experiments were done with a BIAcore instrument (Pharmacia). A phosphopeptide corresponding to the NPXY sequence in the polyomavirus middle T antigen (mT) (LSLLSNPTpYSVNSK) was absorbed to the surface of a biosensor chip. Binding of soluble GST-Shc PTB domain fusion protein to the mT peptide was measured in the presence or absence of competing soluble phosphopeptides based on the sequences around Tyr 513 of DDR1b or Tyr 490 of the NGFR (HIIENPQpYFSD) (21).
Experiments were done with a BIAcore instrument (Pharmacia). A phosphopeptide corresponding to the NPXY sequence in the polyomavirus middle T antigen (LSLLSNPTpYSVMRSK) was absorbed to the surface of a biosensor chip. Binding of soluble GST-Shc PTB domain fusion protein to the middle T peptide was measured in presence or absence of competing soluble phosphopeptides based on the sequences around tyrosine 513 of DDR1b (ALLLSNPApYRLLLA) or tyrosine 490 of the NGF receptor (HIIENPQpYFSD).

[1] = transfected 293 cells plated on collagen-coated dishes

T2 sequence (Q08345 19-913): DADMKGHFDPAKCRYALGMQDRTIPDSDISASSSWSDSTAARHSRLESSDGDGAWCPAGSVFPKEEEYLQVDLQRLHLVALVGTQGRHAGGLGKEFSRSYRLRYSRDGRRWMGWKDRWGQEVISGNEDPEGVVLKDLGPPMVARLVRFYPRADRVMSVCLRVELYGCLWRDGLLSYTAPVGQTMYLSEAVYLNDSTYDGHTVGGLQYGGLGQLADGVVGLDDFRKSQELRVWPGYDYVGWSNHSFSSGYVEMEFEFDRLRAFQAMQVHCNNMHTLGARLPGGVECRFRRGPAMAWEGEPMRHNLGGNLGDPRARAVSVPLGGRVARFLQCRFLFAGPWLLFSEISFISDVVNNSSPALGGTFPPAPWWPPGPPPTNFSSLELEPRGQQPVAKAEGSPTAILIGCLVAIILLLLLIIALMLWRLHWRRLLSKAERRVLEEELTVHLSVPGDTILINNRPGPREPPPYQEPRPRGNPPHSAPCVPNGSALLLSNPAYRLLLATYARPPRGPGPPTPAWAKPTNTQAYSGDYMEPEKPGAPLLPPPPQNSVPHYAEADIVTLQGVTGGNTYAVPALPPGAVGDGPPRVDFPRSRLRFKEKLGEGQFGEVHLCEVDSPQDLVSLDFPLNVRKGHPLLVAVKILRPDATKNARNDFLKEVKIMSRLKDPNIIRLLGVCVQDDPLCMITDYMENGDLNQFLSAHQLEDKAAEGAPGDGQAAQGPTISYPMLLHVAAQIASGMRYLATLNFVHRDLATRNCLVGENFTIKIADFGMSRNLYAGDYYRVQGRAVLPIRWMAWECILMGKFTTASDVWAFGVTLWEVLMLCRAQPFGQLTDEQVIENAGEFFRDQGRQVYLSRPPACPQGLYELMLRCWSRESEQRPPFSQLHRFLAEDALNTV
T3 sequence (Q08345 19-913): as above

effect on DDR activity (DDR receptors): no effect
Compound: heparin

DDR2 tyrosine phosphorylation on immobilized collagen (DDR2; [1]): triggered | tyrosine phosphorylation of endogenous DDR1b in T-47D cells (DDR1b): lower, but still detectable | ligand activity: induction of DDR1 (DDR1b) tyrosine phosphorylation (DDR1): equally good ligands | DDR1b tyrosine phosphorylation on immobilized collagen (DDR1; [1]): further increased
Compound: collagen type III: collagen type III purified from human placenta
ligand activity: induction of DDR2 tyrosine phosphorylation (DDR2): highly potent ligands; also recorded: highly activated

tyrosine phosphorylation of endogenous DDR1b in T-47D cells (DDR1b): activated
Compound: [O]=[V]([O-])([O-])[O-] [orthovanadate, reference compound]

Compound: C[C@@H]1C[C@@H]([C@H](O)CC2CC(=O)NC(=O)C2)C(=O)[C@@H](C)C1 [cycloheximide, reference compound]
effect on ability of collagen to induce DDR tyrosine phosphorylation (DDR receptors; treatment of cells, data not shown): not inhibited

Compound: CC[C@H](C)[C@H](NC(=O)[C@@H](NC(=O)[C@@H](N)Cc1c[nH]cn1)[C@@H](C)CC)C(=O)N[C@@H](CCC(=O)O)C(=O)N[C@@H](CC(N)=O)C(=O)N1CCC[C@H]1C(=O)N[C@@H](CCC(N)=O)C(=O)N[C@@H](Cc1ccc(OP(=O)(O)O)cc1)C(=O)N[C@@H](Cc1ccccc1)C(=O)N[C@@H](CO)C(=O)N[C@@H](CC(=O)O)C(=O)O [NGF receptor phosphopeptide, HIIENPQpYFSD] (H-HIIENPQ[pY]FSD-OH; N-terminus and C-terminus assumed)
IC50 (Shc PTB domain): ~100 nM and 70 nM

tyrosine phosphorylation of endogenous DDR1b in T-47D cells (DDR1b): did not induce an increase
Compound: gelatin

ligand activity: induction of DDR1 (DDR1b) tyrosine phosphorylation (DDR1): neither
Compound: fibronectin

ligand activity: induction of DDR1 (DDR1b) tyrosine phosphorylation (DDR1): neither
Compound: laminin

ligand activity: induction of DDR2 tyrosine phosphorylation (DDR2): moderate activity | tyrosine phosphorylation of endogenous DDR1b in T-47D cells (DDR1b): lower, but still detectable
Compound: collagen type II: collagen type II from bovine tracheal cartilage

effect on DDR activity (DDR receptors): no effect
Compound: chondroitin-sulphate A
